We go through eight substances from PMC2191300 (The Journal of Experimental Medicine, 1993).

The target in the assay is I-Ak (Mus musculus, UniProt P01910+P06343). In words: Percent of I-Ak occupied by each eluted self-peptide. As to conditions: I-Ak from thymus (cortical plus medullary epithelium) of C3H/HeJ mice; Table 1.
Sequence of I-Ak (P01910 whole entry, looked up): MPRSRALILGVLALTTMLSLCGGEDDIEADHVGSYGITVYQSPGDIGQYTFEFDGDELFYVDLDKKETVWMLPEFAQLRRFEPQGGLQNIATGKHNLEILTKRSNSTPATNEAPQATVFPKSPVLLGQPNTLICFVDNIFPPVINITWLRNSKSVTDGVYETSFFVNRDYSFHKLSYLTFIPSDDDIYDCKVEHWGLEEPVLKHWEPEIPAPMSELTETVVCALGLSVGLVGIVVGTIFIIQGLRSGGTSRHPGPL
Sequence of I-Ak (P06343 whole entry, looked up): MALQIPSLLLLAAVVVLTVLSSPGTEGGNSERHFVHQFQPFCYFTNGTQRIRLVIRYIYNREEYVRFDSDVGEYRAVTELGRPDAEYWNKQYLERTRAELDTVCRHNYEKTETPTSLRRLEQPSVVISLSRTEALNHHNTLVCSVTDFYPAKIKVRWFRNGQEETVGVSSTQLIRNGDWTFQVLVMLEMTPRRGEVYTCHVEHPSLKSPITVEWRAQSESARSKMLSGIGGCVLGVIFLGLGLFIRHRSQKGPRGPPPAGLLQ
Turning to a vvKKGTD_FQLNQLE [Transferrin 100-], the “Percent of MHC occupied in Thymus” value was 0.3%.

Regarding e yiLYNKGIMGEdSYPY [Cathepsin H 77-], the “Percent of MHC occupied in Thymus” value is reported as 0.2%.

Take k kGTD_FQLNQLEGKKG [Transferrin 103-]: the “Percent of MHC occupied in Thymus” value amounted to 0.2%.

Take n serHFV_HQFQPFcyF [A~ 3-]: the “Percent of MHC occupied in Thymus” value was < 0.1%.

Turning to r sYLD_AwVcEQLAT [Fce Receptor 11 298-], the “Percent of MHC occupied in Thymus” value was < 0.1%.

Take xPL_ALQFAELPVNKG: the “Percent of MHC occupied in Thymus” value is on record as 0.2%.

Take xP_IDDGGIEA: the “Percent of MHC occupied in Thymus” value was < 0.1%.

On to xQLGA_QNEMLxPV, for which the “Percent of MHC occupied in Thymus” value is < 0.1%.
